Assay results reported in patent US12679807B2 (MERCK SHARP & DOHME LLC, priority 2020, dated 2026).

The molecules below were run against T1, GCS enzyme contained within Golgi preparations isolated from human A375 malignant melanoma skin cells (Homo sapiens, UniProt Q16739) (assay: UDP-Glo glucosylceramide synthase biochemical assay). Details: crude Golgi preparation from A375 cells; C6 ceramide and UDP-glucose substrates; 20 h incubation at room temperature; UDP detected by luminescence.
T1 construct: endogenous levels of GCS enzyme contained within Golgi preparations isolated from human A375 malignant melanoma skin cells; endogenous in cells; host or cells: A375 human malignant melanoma cells (crude Golgi preparation)
T1 sequence (Q16739 1-394): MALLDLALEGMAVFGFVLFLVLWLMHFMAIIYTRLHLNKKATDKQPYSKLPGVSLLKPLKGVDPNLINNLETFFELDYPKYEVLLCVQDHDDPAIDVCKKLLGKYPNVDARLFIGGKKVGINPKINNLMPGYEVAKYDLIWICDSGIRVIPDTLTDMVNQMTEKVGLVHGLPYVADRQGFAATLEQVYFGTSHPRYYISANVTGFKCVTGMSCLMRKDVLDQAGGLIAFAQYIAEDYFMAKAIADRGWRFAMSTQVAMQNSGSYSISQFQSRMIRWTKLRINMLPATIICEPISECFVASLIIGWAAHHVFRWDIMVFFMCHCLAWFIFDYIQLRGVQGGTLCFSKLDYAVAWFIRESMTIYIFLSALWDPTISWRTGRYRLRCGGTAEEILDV
How it was run: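 Endogenous enzyme in A375 Golgi preparations (1.5 μg total protein) was preincubated 30 min with compound, then reacted 20 h at room temperature with UDP-glucose and ceramide.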
`Cc1cc(-c2ccc(-c3cc(F)cc4c3C(=O)N([C@H](C3CC3)C(C)(C)O)C4)cc2)on1` [Compound 26, (R)-2-(1-cyclopropyl-2-hydroxy-2-methylpropyl)-5-fluoro-7-(4-(3-methylisoxazol-5-yl)phenyl)isoindolin-1-one] was tested, and the EC50 was 1 nM. Molecule `Cc1nnc(-c2ccc(-c3cc(F)cc4c3C(=O)N([C@H](C3CC3)C(C)(C)O)C4)c(F)c2)o1` [Compound 27, (R)-2-(1-cyclopropyl-2-hydroxy-2-methylpropyl)-5-fluoro-7-(2-fluoro-4-(5-methyl-1,3,4-oxadiazol-2-yl)phenyl)isoindolin-1-one] has an EC50 of 1.4 nM. `Cn1cc(-c2ccc(-c3nccc4c3C(=O)N([C@H](C3CC3)C(C)(C)O)C4)cc2)cn1` [Compound 29, (R)-2-(1-cyclopropyl-2-hydroxy-2-methylpropyl)-4-(4-(1-methyl-1H-pyrazol-4-yl)phenyl)-1,2-dihydro-3H-pyrrolo[3,4-c]pyridin-3-one] gave an EC50 of 200 nM. `Cn1cc(-c2ccc(-c3cncc4c3C(=O)N([C@H](C3CC3)C(C)(C)O)C4)cc2)cn1` [Compound 32, (R)-2-(1-cyclopropyl-2-hydroxy-2-methylpropyl)-7-(4-(1-methyl-1H-pyrazol-4-yl)phenyl)-2,3-dihydro-1H-pyrrolo[3,4-c]pyridin-1-one] was tested, and the EC50 was 57 nM. In the case of `Cn1cc(-c2ccc(-c3ccnc4c3C(=O)N([C@H](C3CC3)C(C)(C)O)C4)cc2)cn1` [Compound 34, (R)-6-(1-cyclopropyl-2-hydroxy-2-methylpropyl)-4-(4-(1-methyl-1H-pyrazol-4-yl)phenyl)-6,7-dihydro-5H-pyrrolo[3,4-b]pyridin-5-one], the EC50 is reported as 48 nM. Work on `Cc1cc(-c2ccnc3c2C(=O)N([C@H](C2CC2)C(C)(C)O)C3)c(F)cc1-c1cnn(C)c1` [Compound 35, (R)-6-(1-cyclopropyl-2-hydroxy-2-methylpropyl)-4-(2-fluoro-5-methyl-4-(1-methyl-1H-pyrazol-4-yl)phenyl)-6,7-dihydro-5H-pyrrolo[3,4-b]pyridin-5-one] yielded an EC50 of 6.8 nM. Molecule `Cn1cc(-c2ccc(-c3ccc(Cl)c4c3C(=O)N([C@H](C3CC3)C(C)(C)O)C4)cc2)cn1` [Compound 37, (R)-4-chloro-2-(1-cyclopropyl-2-hydroxy-2-methylpropyl)-7-(4-(1-methyl-1H-pyrazol-4-yl)phenyl)isoindolin-1-one] has an EC50 of 0.24 nM. `Cc1nnc(-c2ccc(-c3ccc(Cl)c4c3C(=O)N([C@H](C3CC3)C(C)(C)O)C4)cc2)o1` [Compound 38, (R)-4-chloro-2-(1-cyclopropyl-2-hydroxy-2-methylpropyl)-7-(4-(5-methyl-1,3,4-oxadiazol-2-yl)phenyl)isoindolin-1-one] gave an EC50 of 0.55 nM. Molecule `Cc1nnc(-c2ccc(-c3c(Cl)ccc4c3C(=O)N([C@H](C3CC3)C(C)(C)O)C4)cc2)o1` [Compound 40, (R)-6-chloro-2-(1-cyclopropyl-2-hydroxy-2-methylpropyl)-7-(4-(5-methyl-1,3,4-oxadiazol-2-yl)phenyl)isoindolin-1-one] has an EC50 of 0.98 nM. With `Cc1nnc(-c2ccc(-c3c(F)cc(Cl)c4c3C(=O)N([C@H](C3CC3)C(C)(C)O)C4)cc2)o1` [Compound 41, (R)-4-chloro-2-(1-cyclopropyl-2-hydroxy-2-methylpropyl)-6-fluoro-7-(4-(5-methyl-1,3,4-oxadiazol-2-yl)phenyl)isoindolin-1-one] the EC50 was 0.25 nM. In the case of `C[C@@H](N1Cc2cccc(-c3ccccc3OCC(F)(F)F)c2C1=O)C(C)(C)O` [Compound 46, (R)-2-(3-hydroxy-3-methylbutan-2-yl)-7-(2-(2,2,2-trifluoroethoxy)phenyl) isoindolin-1-one], the EC50 is reported as 140 nM. Molecule `CC[C@@H](N1Cc2cccc(-c3ccc(-c4nnc(C)o4)cc3)c2C1=O)C(C)(C)O` [Compound 48, 2-[(1R)-1-ethyl-2-hydroxy-2-methyl-propyl]-7-[4-(5-methyl-1,3,4-oxadiazol-2-yl)phenyl]isoindolin-1-one] has an EC50 of 81 nM. Work on `O=C1c2c(cccc2-c2ccccc2OCC(F)(F)F)CN1[C@@H](CO)C1CC1` [Compound 49, (R)-2-(1-cyclopropyl-2-hydroxyethyl)-7-(2-(2,2,2-trifluoroethoxy)phenyl) isoindolin-1-one] yielded an EC50 of 92 nM. For `Cc1nnc(-c2ccc(-c3cccc4c3C(=O)N([C@@H](CO)C3CC3)C4)cc2)o1` [Compound 50, (R)-2-(1-cyclopropyl-2-hydroxyethyl)-7-(4-(5-methyl-1,3,4-oxadiazol-2-yl)phenyl)isoindolin-1-one], the EC50 was 630 nM. For `Cc1nn(C)c2ccc(-c3c(F)ccc4c3C(=O)N([C@H](C3CC3)C(C)(C)O)C4)cc12` [Compound 55, (R)-2-(1-cyclopropyl-2-hydroxy-2-methylpropyl)-7-(1,3-dimethyl-1H-indazol-5-yl)-6-fluoroisoindolin-1-one], the EC50 was 0.18 nM. `Cc1nn(C)c2ccc(-c3ccc(F)c4c3C(=O)N([C@H](C3CC3)C(C)(C)O)C4)cc12` [Compound 56, (R)-2-(1-cyclopropyl-2-hydroxy-2-methylpropyl)-7-(1,3-dimethyl-1H-indazol-5-yl)-4-fluoroisoindolin-1-one] was tested, and the EC50 was 0.43 nM. Work on `COC(C)(C)[C@@H](C1CC1)N1Cc2cccc(-c3ccc(-c4nnc(C)o4)cc3)c2C1=O` [Compound 57, (R)-2-(1-cyclopropyl-2-methoxy-2-methylpropyl)-7-(4-(5-methyl-1,3,4-oxadiazol-2-yl)phenyl)isoindolin-1-one] yielded an EC50 of 260 nM. In the case of `Cc1nnc(-c2ccc(-c3ccc(O)c4c3C(=O)N([C@H](C3CC3)C(C)(C)O)C4)cc2)o1` [Compound 58, (R)-2-(1-Cyclopropyl-2-hydroxy-2-methylpropyl)-4-hydroxy-7-(4-(5-methyl-1,3,4-oxadiazol-2-yl)phenyl)isoindolin-1-one], the EC50 is reported as 28 nM. `Cc1nnc(-c2ccc(-c3c(F)cc(O)c4c3C(=O)N([C@H](C3CC3)C(C)(C)O)C4)cc2)o1` [Compound 59, (R)-2-(1-cyclopropyl-2-hydroxy-2-methylpropyl)-6-fluoro-4-hydroxy-7-(4-(5-methyl-1,3,4-oxadiazol-2-yl)phenyl) isoindolin-1-one] was tested, and the EC50 was 9.9 nM. With `Cn1cc(-c2ccc(-c3ccc(O)c4c3C(=O)N([C@H](C3CC3)C(C)(C)O)C4)cc2)cn1` [Compound 60, (R)-2-(1-cyclopropyl-2-hydroxy-2-methylpropyl)-4-hydroxy-7-(4-(1-methyl-1H-pyrazol-4-yl)phenyl) isoindolin-1-one] the EC50 was 9.4 nM. With `Cc1cc2c(c(-c3ccc(-c4nnc(C)o4)cc3)c1)C(=O)N([C@H](C1CC1)C(C)(C)O)C2` [Compound 61, (R)-2-(1-Cyclopropyl-2-hydroxy-2-methylpropyl)-5-methyl-7-(4-(5-methyl-1,3,4-oxadiazol-2-yl)phenyl)isoindolin-1-one] the EC50 was 8.9 nM. Molecule `Cc1cnc(-c2ccc(-c3cccc4c3C(=O)N([C@H](C3CC3)C(C)(C)O)C4)cc2)o1` [Compound 64, (R)-2-(1-Cyclopropyl-2-hydroxy-2-methylpropyl)-7-(4-(5-methyloxazol-2-yl)phenyl)isoindolin-1-one] has an EC50 of 180 nM. `Cc1nnc(-c2ccc(-c3cccc4c3C(=O)N([C@H](C3CC3)C(C)(C)O)C4)cn2)o1` [Compound 65, (R)-2-(1-cyclopropyl-2-hydroxy-2-methylpropyl)-7-(6-(5-methyl-1,3,4-oxadiazol-2-yl)pyridin-3-yl)isoindolin-1-one] gave an EC50 of 150 nM. `Cc1nnc(-c2ncc(-c3cccc4c3C(=O)N([C@H](C3CC3)C(C)(C)O)C4)cc2F)o1` [Compound 66, (R)-2-(1-cyclopropyl-2-hydroxy-2-methylpropyl)-7-(5-fluoro-6-(5-methyl-1,3,4-oxadiazol-2-yl)pyridin-3-yl)isoindolin-1-one] gave an EC50 of 500 nM. `COc1cc(-c2cccc3c2C(=O)N([C@H](C2CC2)C(C)(C)O)C3)ccc1-c1nnc(C)o1` [Compound 67, (R)-2-(1-cyclopropyl-2-hydroxy-2-methylpropyl)-7-(3-methoxy-4-(5-methyl-1,3,4-oxadiazol-2-yl)phenyl)isoindolin-1-one] showed an EC50 of 12 nM. With `Cc1nnc(-c2ccc(-c3cccc4c3C(=O)N([C@H](C3CC3)C(C)(C)O)C4)c(F)c2)o1` [Compound 68, (R)-2-(1-cyclopropyl-2-hydroxy-2-methylpropyl)-7-(2-fluoro-4-(5-methyl-1,3,4-oxadiazol-2-yl)phenyl)isoindolin-1-one] the EC50 was 3.5 nM. In the case of `CC(C)(O)[C@@H](C1CC1)N1Cc2cccc(-c3ccc(-n4ccnn4)cc3)c2C1=O` [Compound 69, (R)-7-(4-(1H-1,2,3-triazol-1-yl)phenyl)-2-(1-cyclopropyl-2-hydroxy-2-methylpropyl)isoindolin-1-one], the EC50 is reported as 110 nM. `Cc1nnc(-c2cc(F)c(-c3cccc4c3C(=O)N([C@H](C3CC3)C(C)(C)O)C4)cc2C)o1` [Compound 70, (R)-2-(1-cyclopropyl-2-hydroxy-2-methylpropyl)-7-(2-fluoro-5-methyl-4-(5-methyl-1,3,4-oxadiazol-2-yl)phenyl)isoindolin-1-one] gave an EC50 of 0.81 nM. Work on `Cc1nnc(-c2ccc(-c3cccc4c3C(=O)N([C@H](C3CC3)C(C)(C)O)C4)cc2C)o1` [Compound 71, (R)-2-(1-cyclopropy1-2-hydroxy-2-methylpropyl)-7-(3-methyl-4-(5-methyl-1,3,4-oxadiazol-2-yl)phenyl)isoindolin-1-one] yielded an EC50 of 0.84 nM.
